Data published in patent US8168779B2, “Anhydrous crystalline β-maltose, its preparation and uses” (priority 2006, dated 2012).

How the values were obtained:
[1] = Hygroscopicity test (moisture content under controlled relative humidity); format: physicochemical; conditions: 27° C., listed as AC β-Mal (Control 3)
Method: Moisture contents of the samples at respective periods were measured based on the change of weight from the start of the test. The moisture contents of the samples at the start of the test were measured by Karl Fischer's method.

[2] = Specific surface area by nitrogen adsorption isotherms (BET); format: physicochemical; conditions: BET method, listed as anhydrous crystalline β-maltose of Control 3
Method: About 3 g of the anhydrous crystalline β-maltose, obtained in Example 1, was dried in the apparatus under a reduced pressure at about 40° C. for about 15 hours as a pretreatment, and then used for the measurement of specific surface area by the nitrogen adsorption isotherms. The result was analyzed by conventional BET (Brunnauer, Emmet, and Teller) method.

Structure (SMILES): OC[C@H]1O[C@H](O[C@H]2[C@H](O)[C@@H](O)[C@H](O)O[C@@H]2CO)[C@H](O)[C@@H](O)[C@@H]1O [Anhydrous crystalline β-maltose]
- Moisture content of samples ([1]; RH 47% (lithium nitrate), 0 hour (start, Karl Fischer)): 0.24 %, w/w
- Moisture content of samples ([1]; RH 47% (lithium nitrate), 2 hours): 0.32 %, w/w
- Moisture content of samples ([1]; RH 47% (lithium nitrate), 4 hours): 0.47 %, w/w
- Moisture content of samples ([1]; RH 47% (lithium nitrate), 24 hours): 0.54 %, w/w
- Moisture content of samples ([1]; RH 47% (lithium nitrate), 96 hours): 0.61 %, w/w
- Moisture content of samples ([1]; RH 47% (lithium nitrate), 192 hours): 0.47 %, w/w
- Moisture content of samples ([1]; RH 58% (sodium bromide), 0 hour (start, Karl Fischer)): 0.24 %, w/w
- Moisture content of samples ([1]; RH 58% (sodium bromide), 2 hours): 4.68 %, w/w
- Moisture content of samples ([1]; RH 58% (sodium bromide), 4 hours): 6.92 %, w/w
- Moisture content of samples ([1]; RH 58% (sodium bromide), 6 hours): 6.71 %, w/w
- Moisture content of samples ([1]; RH 58% (sodium bromide), 8 hours): 6.28 %, w/w
- Moisture content of samples ([1]; RH 58% (sodium bromide), 24 hours): 5.63 %, w/w
- Moisture content of samples ([1]; RH 58% (sodium bromide), 96 hours): 5.48 %, w/w
- Moisture content of samples ([1]; RH 58% (sodium bromide), 192 hours): 5.42 %, w/w
- Moisture content of samples ([1]; RH 75% (sodium chloride), 0 hour (start, Karl Fischer)): 0.24 %, w/w
- Moisture content of samples ([1]; RH 75% (sodium chloride), 2 hours): 6.86 %, w/w
- Moisture content of samples ([1]; RH 75% (sodium chloride), 4 hours): 6.76 %, w/w
- Moisture content of samples ([1]; RH 75% (sodium chloride), 6 hours): 6.47 %, w/w
- Moisture content of samples ([1]; RH 75% (sodium chloride), 8 hours): 6.34 %, w/w
- Moisture content of samples ([1]; RH 75% (sodium chloride), 24 hours): 6.16 %, w/w
- Moisture content of samples ([1]; RH 75% (sodium chloride), 96 hours): 6.01 %, w/w
- Moisture content of samples ([1]; RH 75% (sodium chloride), 192 hours): 5.93 %, w/w
- Moisture content of samples ([1]; RH 90% (barium chloride), 0 hour (start, Karl Fischer)): 0.24 %, w/w
- Moisture content of samples ([1]; RH 90% (barium chloride), 2 hours): 7.28 %, w/w
- Moisture content of samples ([1]; RH 90% (barium chloride), 4 hours): 7.66 %, w/w
- Moisture content of samples ([1]; RH 90% (barium chloride), 6 hours): 7.45 %, w/w
- Moisture content of samples ([1]; RH 90% (barium chloride), 8 hours): 7.45 %, w/w
- Moisture content of samples ([1]; RH 90% (barium chloride), 24 hours): 8.46 %, w/w
- Moisture content of samples ([1]; RH 90% (barium chloride), 96 hours): 10.20 %, w/w
- Moisture content of samples ([1]; RH 90% (barium chloride), 192 hours): 9.12 %, w/w
- Specific surface area [2]: 0.82 m^2/g
